Source: ChEMBL document CHEMBL4806958, “Anti-cancer/anti-fibrosis compounds” (2020)

Legend:
[1] = biological target: Casein kinase II subunit alpha (Homo sapiens, UniProt P68400); test: Inhibition of CSNK2A1(unknown origin) using Ser/Thr 11 as substrate incubated for 60 mins in presence of ATP by Z'-LYTE assay
[2] = biological target: Homeodomain-interacting protein kinase 2 (Homo sapiens, UniProt Q9H2X6); test: Inhibition of HIPK2 (unknown origin) using Ser/Thr 09 as substrate incubated for 60 mins in presence of ATP by Z'-Lyte assay
Homeodomain-interacting protein kinase 2, sequence (Q9H2X6 whole entry): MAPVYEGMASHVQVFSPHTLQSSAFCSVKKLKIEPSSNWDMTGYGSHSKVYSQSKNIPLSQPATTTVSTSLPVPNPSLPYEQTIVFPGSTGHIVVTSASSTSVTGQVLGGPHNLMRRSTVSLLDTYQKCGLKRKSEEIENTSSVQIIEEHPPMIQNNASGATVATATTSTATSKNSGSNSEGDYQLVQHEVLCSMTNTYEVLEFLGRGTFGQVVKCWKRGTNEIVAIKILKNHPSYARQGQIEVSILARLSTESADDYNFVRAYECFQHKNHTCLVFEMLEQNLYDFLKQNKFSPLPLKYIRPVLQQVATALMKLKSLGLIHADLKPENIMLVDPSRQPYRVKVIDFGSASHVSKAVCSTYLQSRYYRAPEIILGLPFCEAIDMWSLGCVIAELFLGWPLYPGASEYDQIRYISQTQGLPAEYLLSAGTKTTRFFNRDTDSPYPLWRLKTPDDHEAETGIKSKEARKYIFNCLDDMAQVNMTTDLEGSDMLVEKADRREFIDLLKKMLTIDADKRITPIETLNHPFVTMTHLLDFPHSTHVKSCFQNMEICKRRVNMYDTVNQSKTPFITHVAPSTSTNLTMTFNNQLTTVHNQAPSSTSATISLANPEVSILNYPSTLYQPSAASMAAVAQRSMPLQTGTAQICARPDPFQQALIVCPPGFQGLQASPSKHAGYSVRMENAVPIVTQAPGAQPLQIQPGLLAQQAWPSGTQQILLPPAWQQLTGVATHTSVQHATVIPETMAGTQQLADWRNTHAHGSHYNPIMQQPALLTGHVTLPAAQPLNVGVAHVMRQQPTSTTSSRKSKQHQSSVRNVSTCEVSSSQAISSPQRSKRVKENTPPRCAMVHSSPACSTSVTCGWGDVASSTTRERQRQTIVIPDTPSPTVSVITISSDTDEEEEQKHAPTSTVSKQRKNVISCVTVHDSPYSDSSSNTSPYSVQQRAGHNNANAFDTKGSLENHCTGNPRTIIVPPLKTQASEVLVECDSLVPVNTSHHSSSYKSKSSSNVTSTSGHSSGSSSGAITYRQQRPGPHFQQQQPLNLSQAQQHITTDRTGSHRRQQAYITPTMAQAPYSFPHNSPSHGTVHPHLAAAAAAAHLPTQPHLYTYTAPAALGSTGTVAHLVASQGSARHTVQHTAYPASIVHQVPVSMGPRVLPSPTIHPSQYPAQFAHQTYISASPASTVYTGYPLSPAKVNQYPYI

Casein kinase II subunit alpha, sequence (P68400 whole entry): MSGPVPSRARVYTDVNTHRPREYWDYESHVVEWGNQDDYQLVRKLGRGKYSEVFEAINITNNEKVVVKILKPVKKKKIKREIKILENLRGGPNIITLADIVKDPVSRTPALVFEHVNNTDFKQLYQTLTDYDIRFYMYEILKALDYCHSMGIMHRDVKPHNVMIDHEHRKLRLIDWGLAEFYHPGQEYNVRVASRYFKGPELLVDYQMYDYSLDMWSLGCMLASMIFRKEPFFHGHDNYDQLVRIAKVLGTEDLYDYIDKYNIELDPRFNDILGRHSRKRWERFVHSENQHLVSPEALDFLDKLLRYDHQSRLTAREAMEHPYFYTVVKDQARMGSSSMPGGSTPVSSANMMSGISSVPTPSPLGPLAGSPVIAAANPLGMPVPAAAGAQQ

SMILES	IC50 [1] [nM]	IC50 [2] [nM]
O=C(O)c1ccc2c(ccc3ccncc32)c1	< 300	–
O=C(O)c1ccc2c(c1)cc(-c1cccnc1)c1ccncc12	< 300	–
CC(C)Nc1cc2cc(C(=O)O)ccc2c2cnccc12	< 300	–
Cc1cc2cc(C(=O)O)ccc2c2cnccc12	< 300	–
O=C(O)c1ccc2c(c1)cc(NC1CCCCC1)c1ccncc12	< 300	–
O=C(O)c1ccc2c(c1)cc(Nc1cccc(Cl)c1)c1ccncc12	< 300	–
O=C(O)c1ccc2c(c1)cc(Cl)c1ccncc12	< 300	–
O=C(O)c1ccc2c(c1)cc([N+](=O)[O-])c1ccncc12	< 300	–
O=C(O)c1ccc2c(c1)cc(Br)c1cc(Cl)ncc12	–	> 5000
N[C@@H]1CCCN(c2cc3cc(C(=O)O)ccc3c3cnccc23)C1	< 300	> 5000
Nc1nccc2cc(Br)c3cc(C(=O)O)ccc3c12	–	< 300
O=C(O)c1ccc2c(c1)cc(Br)c1ccncc12	< 300	< 300
O=C(O)c1ccc2c(c1)cc(N1CCCCC1)c1ccncc12	< 300	–
O=C(O)c1ccc2c(ccc3ccnc(Cl)c32)c1	< 300	–
